From ChEMBL document CHEMBL4354853, “Design, Synthesis, and Biological Evaluation of Imidazo[1,2-a]pyridine Derivatives as Novel PI3K/mTOR Dual Inhibitors” (J Med Chem, 2020)

Legend:
[1] = Half life in Sprague-Dawley rat at 1 mg/kg, iv by LC-MS/MS analysis; type: ADME, organism-based; details: in vivo
[2] = Volume of distribution at steady state in Sprague-Dawley rat at 1 mg/kg, iv by LC-MS/MS analysis; type: ADME, organism-based; details: in vivo, read-out: Vdss
[3] = Cmax in Sprague-Dawley rat at 5 mg/kg, po by LC-MS/MS analysis; type: ADME, organism-based; set-up: dose 5 mg/kg, route oral; details: in vivo
[4] = AUC (0 to infinity) in Sprague-Dawley rat at 1 mg/kg, iv by LC-MS/MS analysis; type: ADME, organism-based; set-up: dose 1 mg/kg, time infinity, route intravenous; details: in vivo
[5] = Half life in Sprague-Dawley rat at 5 mg/kg, po by LC-MS/MS analysis; type: ADME, organism-based; details: in vivo
[6] = Drug level in tumor of nude BALB/c mouse xenografted with human HCT116 cells at 20 mg/kg, po administered as single dose measured after 48 hrs by LC-MS/MS analysis; type: ADME, organism-based, Neoplasm; details: read-out: Drug uptake
[7] = Oral bioavailability in Sprague-Dawley rat at 5 mg/kg by LC-MS/MS analysis; type: ADME, organism-based; details: in vivo
[8] = AUC (0 to infinity) in Sprague-Dawley rat at 5 mg/kg, po by LC-MS/MS analysis; type: ADME, organism-based; set-up: dose 5 mg/kg, route oral, time infinity; details: in vivo
[9] = Clearance in Sprague-Dawley rat at 1 mg/kg, iv by LC-MS/MS analysis; type: ADME, organism-based; details: in vivo

## COc1ncc(-c2ccc3ncc(-c4nnc(CCN5CCN(C)CC5)o4)n3c2)cc1NS(=O)(=O)c1ccc(F)cc1F
[1]
  half-life: 4.71 h
[2]
  Vd: 0.69 L/kg
[3]
  Cmax: 553 ng/mL
[4]
  AUC(0-inf): 2960 ng·h/mL
[5]
  half-life: 7.94 h
[6]
  concentration at 48 h: 600 nM
[7]
  bioavailability: 26.8%
[8]
  AUC(0-inf): 3960 ng·h/mL
[9]
  clearance: 5.66 mL/min/kg
